Each compound was assayed against T1, estrogen receptor alpha (ESR1) in MCF7 breast cancer cells (Homo sapiens, UniProt P03372) (assay: Breast Cancer Cell ERa High Content Fluorescence Imaging Assay (F10)). Conditions: 4 hours, plateau of the maximal effect, DMSO and 5 nM Fulvestrant define 0% and 100% changes in ESR1.
T1 construct: endogenous in cells; host or cells: MCF7 breast cancer cells
T1 sequence (P03372 1-595): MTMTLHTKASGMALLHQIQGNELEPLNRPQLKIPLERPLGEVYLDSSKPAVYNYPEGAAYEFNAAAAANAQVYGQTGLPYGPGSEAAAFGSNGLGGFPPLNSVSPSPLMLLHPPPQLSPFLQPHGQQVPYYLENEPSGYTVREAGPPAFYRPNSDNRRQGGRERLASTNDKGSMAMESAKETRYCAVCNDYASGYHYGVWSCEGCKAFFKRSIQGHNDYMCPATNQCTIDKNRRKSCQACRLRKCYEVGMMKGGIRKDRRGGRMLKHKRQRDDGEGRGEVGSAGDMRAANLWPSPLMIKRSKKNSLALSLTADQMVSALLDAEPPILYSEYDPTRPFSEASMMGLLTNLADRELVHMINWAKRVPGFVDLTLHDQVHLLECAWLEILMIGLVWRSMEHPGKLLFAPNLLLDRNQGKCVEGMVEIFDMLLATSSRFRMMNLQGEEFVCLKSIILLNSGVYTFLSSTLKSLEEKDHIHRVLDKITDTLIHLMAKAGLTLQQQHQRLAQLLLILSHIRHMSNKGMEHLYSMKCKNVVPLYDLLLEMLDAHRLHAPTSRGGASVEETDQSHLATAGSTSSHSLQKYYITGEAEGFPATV
Type: cell-based
Protocol: Breast Cancer Cell ERa High Content Fluorescence Imaging Assay (F10)
Cell plates were incubated at 37° C., for 4 hours. Fixation and permeabilization were carried out using a Biotek EL406 plate washer and dispenser as follows. […] Samples were incubated 30 minutes. Well contents was aspirated and 50 ul/well of Phosphate Buffered Saline (PBS) containing 0.5% w/v bovine serum albumen, 0.5% v/v Triton X-100 (Antibody Dilution Buffer) was added to each well. Samples were incubated for 30 minutes. Well contents were aspirated and washed 3 times with 100 ul/well of PBS. Immunofluorescence staining of estrogen receptor alpha (ESR1) was carried out using a Biotek EL406 plate washer and dispenser as follows. […] Samples were incubated for 2 hours at room temperature. Samples were washed 4 times with 100 ul/well of PBS. […] Samples were incubated for 2 hours at room temperature. Samples were washed 3 times with 100 ul/well of PBS using a Biotek EL406. Quantitative fluorescence imaging of ESR1 was carried out using a Cellomics Arrayscan V (Thermo). […] Channel 1 (DNA stain) was used to define the nuclear region (Circ). […] Data analysis was carried out using Genedata Screener Software, with DMSO and 5 nM Fulvestrant treated samples being used to define the 0% and 100% changes in ESR1. The “Robust Fit” method was used to define the inflexion point of curve (EC50) and the plateau of the maximal effect (Sinf).

Which “ER-alpha MCF7 HCS Sinf (%)” value does the source give for `CC1=C(c2cccc(Cl)c2)[C@@H](c2ccc(OCCN3CC(CF)C3)cc2)Oc2ccc(O)cc21` [Example 36, (R)-3-(3-chlorophenyl)-2-(4-(2-(3-(fluoromethyl)azetidin-1-yl)ethoxy)phenyl)-4-methyl-2H-chromen-6-ol] here?
Its value is −95%.

Which “ER-alpha MCF7 HCS Sinf (%)” value does the source give for `CC1=C(c2cccc(Cl)c2)[C@H](c2ccc(OCCN3CC(CF)C3)cc2)Oc2ccc(O)cc21` [Example 37, (S)-3-(3-chlorophenyl)-2-(4-(2-(3-(fluoromethyl)azetidin-1-yl)ethoxy)phenyl)-4-methyl-2H-chromen-6-ol] here?
Its value is −98%.

How did the “ER-alpha MCF7 HCS Sinf (%)” value turn out when `CC1=C(c2ccc(F)cc2Cl)[C@@H](c2ccc(OCCN3CC(CF)C3)cc2)Oc2ccc(O)cc21` [Example 40, (2R)-3-(2-chloro-4-fluoro-phenyl)-2-[4-[2-[3-(fluoromethyl)azetidin-1-yl]ethoxy]phenyl]-4-methyl-2H-chromen-6-ol] was run?
Its value is −98%.

`CC1=C(c2ccc(F)cc2Cl)[C@H](c2ccc(OCCN3CC(CF)C3)cc2)Oc2ccc(O)cc21` [Example 41, (2S)-3-(2-chloro-4-fluoro-phenyl)-2-[4-[2-[3-(fluoromethyl)azetidin-1-yl]ethoxy]phenyl]-4-methyl-2H-chromen-6-ol] was tested. Which “ER-alpha MCF7 HCS Sinf (%)” value did it give?
The value was −100%.

Which “ER-alpha MCF7 HCS Sinf (%)” value does the source give for `CC1=C(c2cc(F)ccc2F)[C@@H](c2ccc(OCCN3CC(CF)C3)cc2)Oc2ccc(O)cc21` [Example 42, (2R)-3-(2,5-difluorophenyl)-2-[4-[2-[3-(fluoromethyl)azetidin-1-yl]ethoxy]phenyl]-4-methyl-2H-chromen-6-ol] here?
Its value is −94%.

For `CC1=C(c2cc(F)ccc2F)[C@H](c2ccc(OCCN3CC(CF)C3)cc2)Oc2ccc(O)cc21` [Example 43, (2S)-3-(2,5-difluorophenyl)-2-[4-[2-[3-(fluoromethyl)azetidin-1-yl]ethoxy]phenyl]-4-methyl-2H-chromen-6-ol], which “ER-alpha MCF7 HCS Sinf (%)” value is on record?
Its value is −94%.

For `COc1cc(C2=C(C)c3cc(O)ccc3OC2c2ccc(OCCN3CC(CF)C3)cc2)ccc1O` (stereo not shown) [Example 46, 2-(4-(2-(3-(fluoromethyl)azetidin-1-yl)ethoxy)phenyl)-3-(4-hydroxy-3-methoxyphenyl)-4-methyl-2H-chromen-6-ol], which “ER-alpha MCF7 HCS Sinf (%)” value is on record?
Its value is −98%.
